Patent US8629159B2, “Thiazolidinedione analogues” (Metabolic Solutions Development Company, LLC, priority 2006, dated 2014)
Marks after values point to notes of the source that are not given here.

Legend:
[1] = tested on: male Sprague-Dawley rats; assay: Prevention of Medrol-induced hypertension, mean blood pressure by direct femoral arterial cannulation; assay type: in vivo, rat; details: hypertension generated by treatment with a glucocorticoid
Description: Hypertension was induced in normal male Sprague-Dawley rats by daily dosing with the glucocorticoid methylprednisolone (Medrol) for 8 days. Separate groups of rats received the vehicle (1% carboxymethylcellulose/0.01% Tween 20) by oral gavage and some of both the vehicle-treated and Medrol-treated rats also received daily doses of compound 1 as shown in Table D below. Mean blood pressure was measured by direct femoral arterial cannulation under fed conditions on day 7 and after a 6 hour fast on day 8. The data are mean and (SEM) mean blood pressure obtained by direct cannulation. N=9; * p<0.05 less than blood pressure in Medrol-treated rats.

[2] = tested on: Male salt-sensitive Dahl rats; assay: Blood pressure (systolic and diastolic) and heart rate by telemetry in hypertensive Dahl rats; assay type: in vivo, rat; details: for Diastolic blood pressure measured by telemetry, Mean / Heart rate measured by telemetry, Mean / Systolic blood pressure measured by telemetry, Mean: 24 hour average
Description: Direct blood pressure (systolic and diastolic) and heart rate was also measured by telemetry (Tables F—H and FIG. 4). Data in Tables F—H and depicted in FIGS. 4A-4C are 24 hour averages for the last 4 days before the start of the daily oral gavage of treatments (−4, −3, −2, −1) and for the days 1-17 during the treatments shown.

[3] = tested on: Male Dahl salt-sensitive rats; assay: Antihypertensive action in hypertensive Dahl salt-sensitive rats (high salt diet), mean blood pressure by direct femoral arterial cannulation; assay type: in vivo, rat
Description: Male Dahl salt-sensitive rats were made hypertensive by feeding of a high salt diet (4% salt) for 3 weeks and then treated daily with the indicated dose of hydrochlorothiazide (HCTZ), compound 1, or the combination of HCTZ and compound 1, as compared to the vehicle alone (1% carboxymethylcellulose/0.01% Tween 20) by oral gavage for 8 days. Mean blood pressure was measured by direct femoral arterial cannulation under fed conditions on day 7 and after a 6 hour fast on day 8.
Referring to FIG. 2 and Table C above, the antihypertensive action of compound 1 is additive with hydrocholothiazide (HCTZ). Data are mean and (SEM) mean blood pressure taken by direct cannulation. N=5; * p<0.05 less than blood pressure in HCTZ-treated rats.

[4] = target: T1, PPARγ (Homo sapiens, UniProt P37231); assay: commercial PPARγ binding assay (Invitrogen; PPAR-LBD/Fluormone PPAR Green complex); details: for Binding to PPARγ (Fluormone displacement signal): mean of three experiments
T1 construct: purchased Invitrogen Corporation, Carlsbad, Calif
T1 sequence (P37231 238-503 limits assumed): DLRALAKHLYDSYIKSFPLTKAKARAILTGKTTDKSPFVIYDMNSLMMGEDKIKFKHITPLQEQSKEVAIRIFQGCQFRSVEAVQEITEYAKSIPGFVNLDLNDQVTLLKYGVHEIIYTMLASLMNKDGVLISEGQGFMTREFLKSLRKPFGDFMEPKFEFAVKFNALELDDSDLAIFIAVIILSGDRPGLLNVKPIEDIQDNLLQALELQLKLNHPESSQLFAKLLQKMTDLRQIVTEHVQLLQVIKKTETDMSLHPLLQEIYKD
Description: The ability of several exemplary compounds of the present invention, shown in Table A, to bind to PPARγ was measured using a commercial binding assay (Invitrogen Corporation, Carlsbad, Calif.) that measures the test compounds ability to bind with PPAR-LBD/Fluormone PPAR Green complex. These assays were performed on three occasions with each assay using four separate wells (quadruplicate) at each concentration of tested compound. The data are mean and SEM of the values obtained from the three experiments. […] Compounds were added at the concentrations shown, which range from 0.1-100 micromolar.

[5] = tested on: Male salt-sensitive Dahl rats; assay: Fasting free fatty acids (FFA) and adiponectin in treated Dahl rats; assay type: in vivo, rat; details: 3 weeks treatment; 40 mg/kg compound 1, 20 mg/kg rosiglitazone
Description: Doses of these compounds were chosen to produce the same metabolic effects in terms of reduction of triglycerides and elevation of adiponectin (Table E). Direct blood pressure (systolic and diastolic) and heart rate was also measured by telemetry (Tables F—H and FIG. 4).

[6] = day 1 of treatment, rosiglitazone 20 mg/kg, compound 1 40 mg/kg
[7] = day 2 of treatment, rosiglitazone 20 mg/kg, compound 1 40 mg/kg
[8] = day 3 of treatment, rosiglitazone 20 mg/kg, compound 1 40 mg/kg
[9] = day 4 of treatment, rosiglitazone 20 mg/kg, compound 1 40 mg/kg
[10] = day 5 of treatment, rosiglitazone 20 mg/kg, compound 1 40 mg/kg
[11] = day 6 of treatment, rosiglitazone 20 mg/kg, compound 1 40 mg/kg
[12] = day 7 of treatment, rosiglitazone 20 mg/kg, compound 1 40 mg/kg
[13] = day 8 of treatment, rosiglitazone 20 mg/kg, compound 1 40 mg/kg
[14] = day 9 of treatment, rosiglitazone 20 mg/kg, compound 1 40 mg/kg
[15] = day 10 of treatment, rosiglitazone 20 mg/kg, compound 1 40 mg/kg
[16] = day 11 of treatment, rosiglitazone 20 mg/kg, compound 1 40 mg/kg
[17] = day 12 of treatment, rosiglitazone 20 mg/kg, compound 1 40 mg/kg
[18] = day 13 of treatment, rosiglitazone 20 mg/kg, compound 1 40 mg/kg
[19] = day 14 of treatment, rosiglitazone 20 mg/kg, compound 1 40 mg/kg
[20] = day 15 of treatment, rosiglitazone 20 mg/kg, compound 1 40 mg/kg
[21] = day 16 of treatment, rosiglitazone 20 mg/kg, compound 1 40 mg/kg
[22] = day 17 of treatment, rosiglitazone 20 mg/kg, compound 1 40 mg/kg
[23] = day −1, before start of treatment
[24] = day −2, before start of treatment
[25] = day −3, before start of treatment
[26] = day −4, before start of treatment

CCc1ccc(C(=O)COc2ccc(CC3SC(=O)NC3=O)cc2)nc1 (centres unmarked) [Compound 1]
blood pressure lowering (in words) [1]: significantly lowered blood pressure | Diastolic blood pressure measured by telemetry, Mean [2, 6]: 119 | Heart rate measured by telemetry, Mean [2, 6]: 420 bpm | Systolic blood pressure measured by telemetry, Mean [2, 6]: 167 | Diastolic blood pressure measured by telemetry, Mean [2, 7]: 117 | Heart rate measured by telemetry, Mean [2, 7]: 414 bpm | Systolic blood pressure measured by telemetry, Mean [2, 7]: 167 | Diastolic blood pressure measured by telemetry, Mean [2, 8]: 120 | Heart rate measured by telemetry, Mean [2, 8]: 406 bpm | Systolic blood pressure measured by telemetry, Mean [2, 8]: 171 | Diastolic blood pressure measured by telemetry, Mean [2, 9]: 119 | Heart rate measured by telemetry, Mean [2, 9]: 405 bpm | Systolic blood pressure measured by telemetry, Mean [2, 9]: 170 | Diastolic blood pressure measured by telemetry, Mean [2, 10]: 122 | Heart rate measured by telemetry, Mean [2, 10]: 400 bpm | Systolic blood pressure measured by telemetry, Mean [2, 10]: 173 | Diastolic blood pressure measured by telemetry, Mean [2, 11]: 121 | Heart rate measured by telemetry, Mean [2, 11]: 395 bpm | Systolic blood pressure measured by telemetry, Mean [2, 11]: 173 | Diastolic blood pressure measured by telemetry, Mean [2, 12]: 125 | Heart rate measured by telemetry, Mean [2, 12]: 389 bpm | Systolic blood pressure measured by telemetry, Mean [2, 12]: 176 | Diastolic blood pressure measured by telemetry, Mean [2, 13]: 128 | Heart rate measured by telemetry, Mean [2, 13]: 394 bpm | Systolic blood pressure measured by telemetry, Mean [2, 13]: 180 | Diastolic blood pressure measured by telemetry, Mean [2, 14]: 129 | Heart rate measured by telemetry, Mean [2, 14]: 388 bpm | Systolic blood pressure measured by telemetry, Mean [2, 14]: 182 | Diastolic blood pressure measured by telemetry, Mean [2, 15]: 132 | Heart rate measured by telemetry, Mean [2, 15]: 389 bpm | Systolic blood pressure measured by telemetry, Mean [2, 15]: 185 | Diastolic blood pressure measured by telemetry, Mean [2, 16]: 132 | Heart rate measured by telemetry, Mean [2, 16]: 389 bpm | Systolic blood pressure measured by telemetry, Mean [2, 16]: 184 | Diastolic blood pressure measured by telemetry, Mean [2, 17]: 132 | Heart rate measured by telemetry, Mean [2, 17]: 391 bpm | Systolic blood pressure measured by telemetry, Mean [2, 17]: 187 | Diastolic blood pressure measured by telemetry, Mean [2, 18]: 135 | Heart rate measured by telemetry, Mean [2, 18]: 388 bpm | Systolic blood pressure measured by telemetry, Mean [2, 18]: 189 | Diastolic blood pressure measured by telemetry, Mean [2, 19]: 135 | Heart rate measured by telemetry, Mean [2, 19]: 385 bpm | Systolic blood pressure measured by telemetry, Mean [2, 19]: 192 | Diastolic blood pressure measured by telemetry, Mean [2, 20]: 137 | Heart rate measured by telemetry, Mean [2, 20]: 390 bpm | Systolic blood pressure measured by telemetry, Mean [2, 20]: 193 | Diastolic blood pressure measured by telemetry, Mean [2, 21]: 138 | Heart rate measured by telemetry, Mean [2, 21]: 389 bpm | Systolic blood pressure measured by telemetry, Mean [2, 21]: 197 | Diastolic blood pressure measured by telemetry, Mean [2, 22]: 141 | Heart rate measured by telemetry, Mean [2, 22]: 388 bpm | Systolic blood pressure measured by telemetry, Mean [2, 22]: 195 | Diastolic blood pressure measured by telemetry, Mean [2, 23]: 125 | Heart rate measured by telemetry, Mean [2, 23]: 393 bpm | Systolic blood pressure measured by telemetry, Mean [2, 23]: 173 | Diastolic blood pressure measured by telemetry, Mean [2, 24]: 127 | Heart rate measured by telemetry, Mean [2, 24]: 398 bpm | Systolic blood pressure measured by telemetry, Mean [2, 24]: 175 | Diastolic blood pressure measured by telemetry, Mean [2, 25]: 123 | Heart rate measured by telemetry, Mean [2, 25]: 400 bpm | Systolic blood pressure measured by telemetry, Mean [2, 25]: 170 | Diastolic blood pressure measured by telemetry, Mean [2, 26]: 124 | Heart rate measured by telemetry, Mean [2, 26]: 406 bpm | Systolic blood pressure measured by telemetry, Mean [2, 26]: 171 | effect on heart rate (in words) ([2]; telemetry, Tables F-H): reducing heart rate | reduction of blood pressure compared with rosiglitazone (in words) ([2]; telemetry, Tables F-H): more effective in reducing blood pressure | Mean blood pressure, Fasted ([3]; 6 hour fast, day 8, oral gavage daily, Compound 1 40 mg/kg/day, HCTZ 5 mg/kg/day): 151 | antihypertensive action in combination with HCTZ (in words) ([3]; FIG. 2 and Table C): additive | Mean blood pressure, Fed ([3]; fed, day 7, oral gavage daily, Compound 1 40 mg/kg/day, HCTZ 5 mg/kg/day): 167 | blood pressure lowering (in words) ([3]; hypertensive Dahl salt-sensitive rats): significantly lower blood pressure | Binding to PPARγ (Fluormone displacement signal) ([4]; 1 μM compound): 223 | Binding to PPARγ (Fluormone displacement signal) ([4]; 3 μM compound): 228 | Binding to PPARγ (Fluormone displacement signal) ([4]; 10 μM compound): 207 | Binding to PPARγ (Fluormone displacement signal) ([4]; 50 μM compound): 174 | Binding to PPARγ (Fluormone displacement signal) ([4]; 100 μM compound): 170 | Binding to PPARγ (Fluormone displacement signal) ([4]; .1 μM compound): 227 | Binding to PPARγ (Fluormone displacement signal) ([4]; .3 μM compound): 232 | binding to PPARγ (in words) ([4]; FIG. 1 and Table B): particularly poor binders | Adiponectin [5]: 36* | FFA [5]: 0.70*
